# Patent US20120264784A1, “METHODS OF TREATING ELEVATIONS IN MTOR SIGNALING” (priority 2009, published 2012)
# Columns and labels:
# [1] = test system: area CA1 of hippocampal slices; experiment: DHPG induced mGluR-LTD, field EPSP recordings in acute hippocampal slices; design: species or system mice
# Method: Acute hippocampal slices were prepared from P25-30 animals in ice-cold dissection buffer containing (in mM): NaCl 87, Sucrose 75, KCl 2.5, NaH2PO4 1.25, NaHCO3 25, CaCl2 0.5, MgSO4 7, Ascorbic acid 1.3, and D-glucose 10 (saturated with 95% O2/5% CO2). Immediately following slicing the CA3 region was removed. Slices were recovered in artificial cerebrospinal fluid (ACSF) containing (in mM): NaCl 124, KCl 5, NaH2PO4 1.23, NaHCO3 26, CaCl2 2, MgCl2 1 and D-glucose 10 (saturated with 95% O2/5% CO2) at 32.5° C. for about >3 hours prior to recording.
# (§1) Field recordings were performed in a submersion chamber, perfused with ACSF (about 2-3 ml/min) at 30° C. Field EPSPs (fEPSPs) were recorded in CA1 stratum radiatum with extracellular electrodes filled with ACSF. Baseline responses were evoked by stimulation of the Schaffer collaterals at 0.033 Hz with a 2-contact cluster electrode (FHC) using about a 0.2 ms stimulus yielding about 40-60% of the maximal response. fEPSP recordings were filtered at about 0.1 Hz-1 kHz, digitized at 10 kHz, and analyzed using pClamp9 (Axon Instruments). The initial slope of the response was used to assess changes in synaptic strength. Data were normalized to the baseline response and are presented as group means±SEM. LTD was measured by comparing the average response about 55-60 minutes post DHPG application to the average of the last 5 minutes of baseline.
# (§2) Input output function was examined by stimulating slices with incrementally increasing current (about 20, about 40, about 80, about 120, about 200, about 300 μA) and recording the fEPSP response. Paired pulse facilitation was induced by applying two pulses at different interstimulus intervals (about 10, about 20, about 50, about 100, about 200, about 300, about 500 ms). Facilitation was measured by the ratio of the fEPSP slope of stimulus 2 to stimulus 1. NMDAR-dependent LTD was induced by delivering 900 test pulses at 1 Hz. mGluR-LTD was induced by applying R, S-Dihydroxyphenylglycine (R,S-DHPG, 50 μM) or S-Dihydroxyphenylglycine (S-DHPG, 25 μM) for about 5 minutes, the effects of which were followed for 60 minutes following treatment. In some experiments slices were incubated with the protein synthesis inhibitor cycloheximide (60 μM) for 30 minutes as follows: about 20 minutes during baseline recording, about 5 minutes during DHPG application and about 5 minutes post DHPG application.
# For mGluR PAM experiments, slices were pretreated with CDPPB (10 μM) or DMSO control for about 30 minutes in same manner as above, either in the presence of cycloheximide or control ACSF. For rapamycin experiments, slices were pretreated with rapamycin (20 nM) or DMSO control, with or without cycloheximide, for at least 30 minutes prior to DHPG application and throughout the entire experiment.
# [2] = test system: area CA1 of hippocampal slices; experiment: Paired pulse facilitation (presynaptic LTD) in acute hippocampal slices; design: species or system mice; details: for PPF (ratio of fEPSP slope of stimulus 2 to stimulus 1): 50 ms inter-stimulus interval, 60 minutes post DHPG (FIG. 3D)
# Method: as §1, §2
# [3] = test system: wildtype and Tsc2^+/− mice; experiment: Context fear-conditioning (context discrimination); format: in vivo; details: for effect on context discrimination (in words): 10 mg/kg i.p. 30 minutes prior to training; for percentage of time spent freezing: single injection 10 mg/kg i.p. 30 minutes prior to training, tested 24 hours later
# Method: Context fear-conditioning experiments were employed to assess improvements in cognitive processing following administration of a composition that activates Group I mGluR signaling, such as by administration of mGluR5PAMs. Context fear-conditioning was performed using a modification of a previously described procedure (Ehninger, D., et al., Nat Med 14, 843-8 (2008). Wildtype and Tsc2^+/− mice (8-12 weeks old) are habituated to the testing room and experimenter for 3 days prior to training On the day of training, mice is placed in the training context and delivered one 0.80 mA shocks (2 sec). The mice were allowed about 3 minutes to explore context before conditioning and were removed about 15 sec after the shock was given and returned to home cage. Conditioned fear response was assessed 24 hours later by a trained observer measuring the percentage of time spent freezing during the test period (about 3 min session). To determine context specificity of the conditioned response, mice trained at the same time were separated into two groups: one group was tested in the same training context and the other tested in a novel context. This novel context was created by varying: distal cues, odor, floor material, and lighting of the testing apparatus. For rescue experiments, animals received a single injection of CDPPB (10 mg/kg, i.p.) about 30 minutes prior to training session.
# Cognitive impairments in the Tsc2^+/− mice were improved by treating the animals with the mTORC1 inhibitor rapamycin (Ehninger, D., et al., Nat. Med. 14: 843-848 (2008)). A robust phenotype was reported to be an impairment in the ability of the Tsc2^+/− mice to distinguish between familiar and novel contexts in a fear conditioning paradigm. The advantage of this paradigm is the learning occurs in one trial, making it amenable to acute drug treatment, and the memory is hippocampus-dependent. The mice are first exposed to a distinctive context in which they receive an aversive foot shock. The next day, context discrimination is tested by dividing the animals into two groups, one placed in the familiar context associated with the shock, and the other placed in a novel context (FIG. 6A). Context discrimination is assessed by measuring the time the animals express fear by freezing in each context.
smiles,measurement,setting,value
"N[C@@H](C(=O)O)c1cc(O)cc(O)c1 (racemic) [DHPG, (R,S)-3,5-dihydroxyphenylglycine]",DHPG induced LTD (fEPSP slope normalized to baseline),"[1]; slices from Tsc2^+/− mice, DHPG alone, 5 min, 55-60 min post DHPG (FIG. 3B)",85.2±2.7%
same,DHPG induced LTD (fEPSP slope normalized to baseline),"[1]; slices from WT mice, DHPG alone, 5 min, 55-60 min post DHPG (FIG. 3B)",74.1±2.0%
same,PPF (ratio of fEPSP slope of stimulus 2 to stimulus 1),[2]; Tsc2^+/− slices,1.63±0.02
same,PPF (ratio of fEPSP slope of stimulus 2 to stimulus 1),[2]; WT slices,1.59±0.04
"N#Cc1cccc(C(=O)Nc2cc(-c3ccccc3)nn2-c2ccccc2)c1 [CDPPB, 3-cyano-N-(1,3-diphenyl-1H-pyrazol-5-yl)benzamide]",effect on DHPG induced LTD (in words),[1]; slices from Tsc2^+/− mice,restored the magnitude of mGluR-LTD in Tsc2^+/− mice to WT levels
same,DHPG induced LTD (fEPSP slope normalized to baseline),"[1]; slices from Tsc2^+/− mice, CDPPB 10 μM co-applied with cycloheximide (FIG. 5E)",84.8±1.8%
same,DHPG induced LTD (fEPSP slope normalized to baseline),"[1]; slices from Tsc2^+/− mice, pretreatment with CDPPB 10 μM (FIG. 5D)",72.7±4.4%
same,effect on DHPG induced LTD in the presence of cycloheximide (in words),"[1]; slices from Tsc2^+/− mice, with cycloheximide",completely eliminated by cycloheximide
same,effect on context discrimination (in words),[3]; Tsc2^+/− mice,sufficient to correct the deficit in context discrimination
same,percentage of time spent freezing,"[3]; Tsc2^+/− mice, familiar context",44.5±4.3%
same,percentage of time spent freezing,"[3]; Tsc2^+/− mice, novel context",31.6±3%
same,effect on context discrimination (in words),[3]; WT mice,no effect
same,percentage of time spent freezing,"[3]; WT mice, familiar context",42.3±3.7%
same,percentage of time spent freezing,"[3]; WT mice, novel context",26.4±3.6%
"C[C@@H]1C[C@@H]([C@H](O)CC2CC(=O)NC(=O)C2)C(=O)[C@@H](C)C1 [CHX, cycloheximide]",effect on DHPG induced LTD (in words),[1]; slices from Tsc2^+/− mice,no effect on LTD
same,DHPG induced LTD (fEPSP slope normalized to baseline),"[1]; slices from Tsc2^+/− mice, cycloheximide 60 μM (FIG. 3C)",83.5±2.1%
same,effect on DHPG induced LTD (in words),[1]; slices from WT mice,reliably reduced
same,DHPG induced LTD (fEPSP slope normalized to baseline),"[1]; slices from WT mice, pretreatment with cycloheximide 60 μM (FIG. 3A)",85.6±3.4%
same,PPF (ratio of fEPSP slope of stimulus 2 to stimulus 1),"[2]; Tsc2^+/− slices, DHPG+CHX",1.62±0.04
same,PPF (ratio of fEPSP slope of stimulus 2 to stimulus 1),"[2]; WT slices, DHPG+CHX",1.58±0.05
same,effect on changes in PPF following DHPG (in words),"[2]; WT slices, cycloheximide 60 μM (FIG. 3D)",not inhibited
"CO[C@H]1C[C@@H]2CC[C@@H](C)[C@@](O)(O2)C(=O)C(=O)N2CCCC[C@H]2C(=O)O[C@H]([C@H](C)C[C@@H]2CC[C@@H](O)[C@H](OC)C2)CC(=O)[C@H](C)/C=C(\C)[C@@H](O)[C@@H](OC)C(=O)[C@H](C)C[C@H](C)/C=C/C=C/C=C/1C [RAP, rapamycin]",DHPG induced LTD (fEPSP slope normalized to baseline),"[1]; slices from Tsc2^+/− mice, pretreatment with rapamycin 20 nM (FIG. 5B)",75.3±3%
same,DHPG induced LTD (fEPSP slope normalized to baseline),"[1]; slices from Tsc2^+/− mice, rapamycin 20 nM with cycloheximide (FIG. 5C)",89.3±2.4%
same,effect on DHPG induced LTD (in words),[1]; slices from WT mice,no effect
same,DHPG induced LTD (fEPSP slope normalized to baseline),"[1]; slices from wildtype animals, pretreatment with rapamycin 20 nM (FIG. 5A)",73.0%
